Assay results published in patent US20220251071A1, “METHOD TO MAKE SMALL-MOLECULE MURINE DOUBLE MINUTE 2 PROTEIN (MDM2)-DEGRADING COMPOUNDS, COMPOUNDS FORMED THEREBY, AND PHARMACEUTICAL COMPOSITIONS CONTAINING THEM” (Wisconsin Alumni Research Foundation, priority 2019, published 2022).

Legend:
[1] = tested on: p53 transcriptional activity (MDM2, TP53, CDKN1A mRNA); experiment: qRT-PCR of mRNA levels of p53 target genes; assay type: cell-based, human; details: RS4;11 cells, 6 h; for transcription of p53 targeted genes MDM2 and CDKN1A (p21): (4S,5R)-1 at 1 PM as printed, 32 at 100 nM
Description: Total RNA was extracted using GeneJET RNA Purification Kit (Thermo Scientific) and titrated by SYNERGY H1 Hybrid Multi-Mode Reader (BioTek) at 260 nm. 1 μg of total RNA was subjected to reverse transcription using High-Capacity cDNA Reverse Transcription Kit (appliedbiosystems). Quantitative RT-PCR was performed using PowerUp™ SYBR™ Green Master Mix (appliedbiosystems) and the amplification detected in a QuantStudio 7 Flex Real-Time PCR System (ThermoFisher Applied Biosystems).

[2] = tested on: p53; details: xenograft tumor tissues; cited from earlier work
[3] = target: T1, MDM2 (Homo sapiens, UniProt Q00987); experiment: Western blot of MDM2 degradation and downstream proteins; assay type: cell-based; details: for MDM2 degradation at 100 nM, 20 compared with 32: identical conditions; for MDM2 degradation (Western blot): RS4;11 leukemia cells, data not shown
T1 construct: endogenous in cells; host or cells: RS4;11 (ATCC CRL-1873)
T1 sequence (Q00987 whole entry): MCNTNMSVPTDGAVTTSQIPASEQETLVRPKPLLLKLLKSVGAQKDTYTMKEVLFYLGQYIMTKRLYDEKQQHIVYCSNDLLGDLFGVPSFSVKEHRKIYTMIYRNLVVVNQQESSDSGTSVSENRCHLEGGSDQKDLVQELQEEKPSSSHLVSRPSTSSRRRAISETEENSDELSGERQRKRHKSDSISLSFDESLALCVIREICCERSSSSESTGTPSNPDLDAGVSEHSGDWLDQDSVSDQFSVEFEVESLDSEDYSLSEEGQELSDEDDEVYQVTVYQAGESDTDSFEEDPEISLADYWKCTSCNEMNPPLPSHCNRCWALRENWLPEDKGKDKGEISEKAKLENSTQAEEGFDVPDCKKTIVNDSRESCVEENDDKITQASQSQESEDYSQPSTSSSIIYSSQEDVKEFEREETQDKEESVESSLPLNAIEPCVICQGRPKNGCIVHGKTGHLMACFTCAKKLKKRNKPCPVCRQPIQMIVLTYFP
Description: (§1) The human acute leukemia RS4;11 cell line was purchased from American Type Culture Collection (ATCC Accession No. CRL-1873), and cultured in RPMI-1640 media (Corning Incorporated (USA), One Riverfront Plaza, Corning, N.Y. 14831) supplemented with 10% fetal bovine serum (FBS), 1% sodium pyruvate, 1% penicillin/streptomycin, and 10 mM HEPES at 37° C. under a humidified 5% CO2 atmosphere. The experiments were performed by using cells with 8-20 passages after purchasing.
Cells were treated with the indicated concentrations of compounds under the indicated time. Cells were collected and lysed with RIPA buffer (Corning) after being washed with cold PBS twice. The supernatant was collected after centrifugation at 16,000×g at 4° C. for 15 min. The protein concentration was measured with BCA (bicinchoninic acid) method. (Smith, P. K., et al. (1985) “Measurement of protein using bicinchoninic acid,” Anal. Biochem. 150(1):76-85.) The protein expressed in the whole cell lysates was identified by Western Blot. A quantity of 40 μg protein per sample was loaded and then separated by SDS-PAGE. Proteins in the gel was transferred to polyvinylidene fluoride (PVDF) membranes, then blocked with 5% non-fat milk, and probed with the primary antibodies at 4° C. overnight. The primary antibodies are as following: MDM2 (D1V2Z) (1:1000), p53 (DO-7) (1:1000), PARP (46D11) (1:1000), Caspase-3 (1:1000), and p21 Waf1/Cip 1(12D1) (1:1000), all of which were purchased from Cell Signaling Technology, Inc., 3 Trask Lane, Danvers, Mass. 01923, along with a-Tubulin (1:1000) and β-Actin (1:1000), which were purchased from R&D Systems, Inc., 614 McKinley Place NE, Minneapolis, Minn. 55413. The membrane was washed with TBS-T 3 times, and incubated with HRP-linked secondary antibodies for 1 h at room temperature, followed by washing with TBS-T. The membrane was incubated with ECL (Bio-rad) for 5 min. The protein band was visualized by using a Bio-Rad Chemi-Doc MP imaging system. The intensity of the band was measured by Image J software.

[4] = tested on: RS4;11 cells; experiment: MTT cell viability (anti-proliferation) assay; assay type: cell-based, human; details: for IC50: Homo sapiens, RS4-11, MTT assay, 48 h incubation, read-out: IC50, inhibition of growth/proliferation of RS4;11 cells; for anti-proliferation effect, rank in screen / anti-proliferation potency relative to parent MDM2 inhibitor: RS4;11 cells; for anti-proliferation effect, rank in screen: compounds tested at 100 nM; for anti-proliferation potency relative to parent MDM2 inhibitor: 20 vs 1, 32 vs (4S, 5R)-1
Description: The “MTT assay” is a colorimetric assay for assessing cellular metabolic activity. NAD(P)H-dependent cellular oxidoreductase enzymes reflect the number of viable cells present. These enzymes are capable of reducing the tetrazolium dye 3-(4,5-dimethylthiazol-2-yl)-2,5-diphenyltetrazolium bromide (“MTT”) to its insoluble formazan, which has a purple color and whose concentration is then measured spectrophotometrically. The MTT assay is conventional and well known. See, for example, Stockert et al. (2018) “Tetrazolium salts and formazan products in Cell Biology: Viability assessment, fluorescence imaging, and labeling perspectives,” Acta Histochemica 120: 159-167. As used herein, “MTT assay” refers broadly to the MTT assay itself and to the well-known variations of it that use structurally related tetrazolium salts (e.g., XTT, MTS, etc.).
as §1
Cells were seeded in a 96-well cell culture plate at a density of 2×10^4 cells with 90 μL cell culture media overnight. The cells were then treated with the indicated dose of compounds, respectively, and incubated at 37° C. under a humidified 5% CO2 atmosphere for 48 h. After the incubation, the cells were treated with 10 μL of MTT solution (5 mg/mL) and incubated with another 4 h, followed by the addition of 100 μL of solubilizing solution. The plate was placed on the shaker for overnight at room temperature until the formazan were entirely dissolved. The plate was scanned at 570 nm and 690 nm. The absorbance was normalized to the DMSO-treated cells, and the IC50 was calculated by non-linear regression analysis using GraphPad Prism 6 software.

[5] = tested on: RS4;11 cells; experiment: Flow cytometry apoptosis, Annexin V / PI staining; assay type: cell-based, human; details: 24 h, 100 nM or 1 μM
Description: Cells were seeded in a 6 cm circular cell culture dish at a density of 5×10^6 cells. After being settled overnight, the cells were treated with the indicated concentrations of compounds for 24 h. The collected cells were double stained with FITC Annexin V and PI according to the manufacturer's protocols. The apoptosis was analyzed using a FITC Annexin V apoptosis detection kit (556547, BD Biosciences, 2350 Qume Drive, San Jose, Calif. 95131).

SMILES | effect on TP53 mRNA [1] | transcription of p53 targeted genes MDM2 and CDKN1A (p21) [1] | MDM2 degradation at 100 nM, 20 compared with 32 ([3]; RS4;11 cells) | MDM2 degradation (Western blot) [3] | IC50 [4] [nM] | anti-proliferation effect, rank in screen [4] | anti-proliferation potency relative to parent MDM2 inhibitor [4] | further results
CCOc1cc(C(C)(C)C)ccc1C1=N[C@@H](c2ccc(Cl)cc2)[C@@H](c2ccc(Cl)cc2)N1C(=O)N1CCNCC1 [(4S, 5R)-1, ((4S,5R)-2-(4-(tert-butyl)-2-ethoxyphenyl)-4,5-bis(4-chlorophenyl)-4,5-dihydro-1H-imidazol-1-yl)(piperazin-1-yl)methanone] | Neither MDM2 ligand (4S, 5R)-1 nor degrader 32 has any effect on TP53 | upregulated | – | – | – | – | – | –
CC(C)(C)C[C@@H]1N[C@@H](C(=O)N[C@H]2CC[C@H](O)CC2)[C@H](c2cccc(Cl)c2F)[C@]12C(=O)Nc1cc(Cl)ccc12 [SAR405838] | – | – | – | – | – | – | – | duration of p53 accumulation after a single dose [2]: only induced a few hours of p53 accumulation
CCOc1cc(C(C)(C)C)ccc1C1=N[C@@H](c2ccc(Cl)cc2)[C@@H](c2ccc(Cl)cc2)N1C(=O)N1CCN(CC#Cc2cccc3c2CN(C2CCC(=O)NC2=O)C3=O)CC1 (stereo partly drawn) [Compound 32, 3-(4-(3-(4-((4S,5R)-2-(4-(tert-butyl)-2-ethoxyphenyl)-4,5-bis(4-chlorophenyl)-4,5-dihydro-1H-imidazole-1-carbonyl)piperazin-1-yl)prop-1-yn-1-yl)-1-oxoisoindolin-2-yl)piperidine-2,6-dione] | Neither MDM2 ligand (4S, 5R)-1 nor degrader 32 has any effect on TP53 | more significant transcriptional upregulation | superior | degrade significant amounts of MDM2 | 3.2 | most potent compound as compared to 33 and 34 | ~1,000 fold | MDM2 degradation on co-treatment with MDM2 ligand (4S, 5R)-1 or CRBN ligand lenalidomide ([3]; 32 at 100 nM, competitor 5 μM): significantly reduced; reversibility of MDM2 downregulation after washout ([3]; 12 h treatment, then fresh medium): reversible; MDM2 degradation on co-incubation with proteasome inhibitor MG132 ([3]; MG132 5 PM as printed): the degradation of MDM2 ceased; MDM2 and p53 protein levels ([3]; RS4;11 cells, 100 nM or 1 μM): MDM2 depleted and p53 was stabilized and upregulated; cleavage of PARP and Caspase-3 ([3]; RS4;11 cells, 100 nM or 1 μM): cleaved PARP and Caspase-3 were observed; p21 protein level ([3]; RS4;11 cells, 100 nM or 1 μM): increased level of p21; Dmax at 0.1 µM ([3]; RS4;11 cells, 24 h, observed at 100 nM, read-out: maximal level of MDM2 degradation (Dmax)): 90%; DC50 ([3]; RS4;11 cells, 24 h incubation, read-out: concentration at which 50% MDM2 degradation was detected (DC50)): 23 nM; time after washout without return of MDM2 to pre-treatment levels ([3]; RS4;11 cells, after removal of degrader): > 48 h; time at which MDM2 degradation was first observed ([3]; RS4;11 cells, time course): 1 h; time at which cleaved PARP was observed ([3]; RS4;11 cells, time course): 6 h; apoptosis induction, Annexin V-positive cells [5]: A large number of cells were identified in Annexin V-positive quadrants
CCOc1cc(C(C)(C)C)ccc1C1=NC(c2ccc(Cl)cc2)C(c2ccc(Cl)cc2)N1C(=O)N1CCN(CC#Cc2cccc3c2CN(C2CCC(=O)NC2=O)C3=O)CC1 (racemic) [Compound 20, 3-(4-(3-(4-(2-(4-(tert-butyl)-2-ethoxyphenyl)-4,5-bis(4-chlorophenyl)-4,5-dihydro-1H-imidazole-1-carbonyl)piperazin-1-yl)prop-1-yn-1-yl)-1-oxoisoindolin-2-yl)piperidine-2,6-dione] | – | – | significant degradation of MDM2 was observed | degrade significant amounts of MDM2 | 7.2 | most potent inhibitor of RS4;11 | ~1,000 fold | –
C=C1NC(=O)CCC1N1Cc2c(C#CCCCC(=O)NCC(=O)N3CCN(C(=O)N4C(c5ccc(C(C)(C)C)cc5OCC)=NC(c5ccc(Cl)cc5)C4c4ccc(Cl)cc4)CC3)cccc2C1=O (centres unmarked) [Compound 15, N-(2-(4-(2-(4-(tert-butyl)-2-ethoxyphenyl)-4,5-bis(4-chlorophenyl)-4,5-dihydro-1H-imidazole-1-carbonyl)piperazin-1-yl)-2-oxoethyl)-6-(2-(2-methylene-6-oxopiperidin-3-yl)-1-oxoisoindolin-4-yl)hex-5-ynamide] | – | – | – | degrade significant amounts of MDM2 | – | – | – | –
CCOc1cc(C(C)(C)C)ccc1C1=NC(c2ccc(Cl)cc2)C(c2ccc(Cl)cc2)N1C(=O)N1CCN(C(=O)CCC#Cc2cccc3c2CN(C2CCC(=O)NC2=O)C3=O)CC1 (centres unmarked) [Compound 7, 3-(4-(5-(4-(2-(4-(tert-butyl)-2-ethoxyphenyl)-4,5-bis(4-chlorophenyl)-4,5-dihydro-1H-imidazole-1-carbonyl)piperazin-1-yl)-5-oxopent-1-yn-1-yl)-1-oxoisoindolin-2-yl)piperidine-2,6-dione] | – | – | – | degrade significant amounts of MDM2 | – | – | – | –
